Consider eleven compounds from patent US12077501B2, “Compounds and compositions for intracellular delivery of agents” (ModernaTX, Inc., priority 2017, dated 2024).

Holding throughout (format): physicochemical
A short description of data set [1]: Particle size and polydispersity index of nanoparticle compositions (Zetasizer Nano ZS). As to conditions: summary of Table 1. The procedure:
A Zetasizer Nano ZS (Malvem Instruments Ltd, Malvem, Worcestershire, UK) can be used to determine the particle size, the polydispersity index (PDI) and the zeta potential of the nanoparticle compositions in 1×PBS in determining particle size and 15 mM PBS in determining zeta potential.

A short description of data set [2]: Encapsulation efficiency of RNA (QUANT-IT RIBOGREEN RNA assay). As to conditions: summary of Table 1. The procedure: For nanoparticle compositions including an RNA, a QUANT-IT™ RIBOGREEN® RNA assay (Invitrogen Corporation Carlsbad, CA) can be used to evaluate the encapsulation of an RNA by the nanoparticle composition. The samples are diluted to a concentration of approximately 5 μg/mL in a TE buffer solution (10 mM Tris-HCl, 1 mM EDTA, pH 7.5). 50 μL of the diluted samples are transferred to a polystyrene 96 well plate and either 50 μL of TE buffer or 50 μL of a 2% Triton X-100 solution is added to the wells. The plate is incubated at a temperature of 37° C. for 15 minutes. The RIBOGREEN® reagent is diluted 1:100 in TE buffer, and 100 μL of this solution is added to each well. The fluorescence intensity can be measured using a fluorescence plate reader (Wallac Victor 1420 Multilablel Counter; Perkin Elmer, Waltham, MA) at an excitation wavelength of, for example, about 480 nm and an emission wavelength of, for example, about 520 nm. The fluorescence values of the reagent blank are subtracted from that of each of the samples and the percentage of free RNA is determined by dividing the fluorescence intensity of the intact sample (without addition of Triton X-100) by the fluorescence value of the disrupted sample (caused by the addition of Triton X-100).

The nature of data set [3]: pKa of nanoparticle compositions. As to conditions: Table 1b.

Broadly, the pKa is the pH at which an ionisable group is half protonated. Low readings indicate a stronger acid or weaker base, high ones a weaker acid or stronger base.

Regarding `CCCCCCCCCCCCN(CCCCCCCCCCCC)CCN1CCN(CCN(CCCCCCCCCCCC)C(=O)CN(CCCCCCCCCCCC)CCCCCCCCCCCC)CC1` [Compound 1, 2-(Didodecylamino)-N-(2-(4-(2-(didodecylamino)ethyl)piperazin-1-yl)ethyl)-N-dodecylacetamide], the “particle size ranking amongst the compositions of Tables 1 and 1a” value in data set [1] was “largest particles”. Besides, the “encapsulation efficiency ranking amongst the compositions of Tables 1 and 1a” value in data set [2] is on record as “lowest”. As for `CCCCC/C=C\CCCCCN(CCCCCCCCCCCC)CCN1CCN(CCN(CCCCCCCCCCCC)CCN(CCCCCCCCCCCC)CCCCCCCCCCCC)CC1` [Compound 24, (Z)—N^1-(2-(4-(2-(Dodec-6-en-1-yl(dodecyl)amino)ethyl)piperazin-1-yl)ethyl)-N^1,N^2,N^2-tridodecylethane-1,2-diamine], the “encapsulation efficiency ranking amongst the compositions of Tables 1 and 1a” value in data set [2] is on record as “lowest”. In the case of `CCCCC/C=C\C/C=C\CCCCCCCCN(CCCCCCCC/C=C\C/C=C\CCCCC)CCN(CCCCCCCC/C=C\C/C=C\CCCCC)CCN1CCN(CCN(CCCCCCCCCCCC)CCCCCCCCCCCC)CC1` [Compound 34, N^1-(2-(4-(2-(Didodecylamino)ethyl)piperazin-1-yl)ethyl)-N^1,N^2,N^2-tri((9Z,12Z)-octadeca-9,12-dien-1-yl)ethane-1,2-diamine], the “particle size ranking amongst the compositions of Tables 1 and 1a” value in data set [1] is reported as “smallest particles”. As for `CCCCCCCCCN(CCCCCCCCC)CCN(CCCCCCCCC)CCN1CCNCC1` [Compound 36, N^1,N^1,N^2-Trinonyl-N^2-(2-(piperazin-1-yl)ethyl)ethane-1,2-diamine], the “encapsulation efficiency ranking amongst the compositions of Tables 1 and 1a” value in data set [2] is on record as “highest”.

Turning to `CCCCCCCCCCCCN(CCCCCCCCCCCC)CCN(CCCCCCCCCCCC)CCN1CCNCC1` [Compound 37, N^1,N^1,N^2-Tridodecyl-N^2-(2-(piperazin-1-yl)ethyl)ethane-1,2-diamine], the “encapsulation efficiency ranking amongst the compositions of Tables 1 and 1a” value in data set [2] is recorded as “highest”. In the case of `CCCCCCCC/C=C\CCCCCCCCN(CCCCCCCC/C=C\CCCCCCCC)CCN(CCCCCCCC/C=C\CCCCCCCC)CCN1CCNCC1` [Compound 40, N^1,N^1,N^2-Tri((Z)-octadec-9-en-1-yl)-N^2-(2-(piperazin-1-yl)ethyl)ethane-1,2-diamine], the “encapsulation efficiency ranking amongst the compositions of Tables 1 and 1a” value in data set [2] is on record as “highest”. On the same count and under the same terms, for `CCCCC/C=C\C/C=C\CCCCCCCCN(CCCCCCCC/C=C\C/C=C\CCCCC)CCN(CCCCCCCC/C=C\C/C=C\CCCCC)CCN1CCNCC1` [Compound 41, N^1,N^1,N^2-Tri((9Z,12Z)-octadeca-9,12-dien-1-yl)-N^2-(2-(piperazin-1-yl)ethyl)ethane-1,2-diamine] the value was “highest”. In the case of `CCCCCCCCCN(CCCCCCCCC)CCN(CCCCCCCCC)CCC1CCN(C(=O)CN(CCCCCCCCC)CCCCCCCCC)CC1` [Compound 50, 2-(Dinonylamino)-1-(4-(2-((2-(dinonylamino)ethyl)(nonyl)amino)ethyl)piperidin-1-yl)ethan-1-one], the “particle size ranking amongst the compositions of Tables 1 and 1a” value in data set [1] is “smallest particles”. For `CCCCCCCCCN(CCCCCCCCC)CCN(CCCCCCCCC)CC(=O)N1CCN(C(=O)CN(CCCCCCCCC)CCCCCCC(=O)OCC)CC1` [Compound 53, Ethyl 7-((2-(4-(N-(2-(dinonylamino)ethyl)-N-nonylglycyl)piperazin-1-yl)-2-oxoethyl)(nonyl)amino)heptanoate], the pKa in data set [3] turned out to be 6.91. The same measure, in the same setting: for `CCCCCCCCCN(CCCCCCCCC)CCN(CCCCCCCCC)CC(=O)N1CCN(C(=O)CN(CCCCCCCCC)CCCCCC(=O)OCCC)CC1` [Compound 54, Propyl 6-((2-(4-(N-(2-(dinonylamino)ethyl)-N-nonylglycyl)piperazin-1-yl)-2-oxoethyl)(nonyl)amino)hexanoate] the value was 6.88; for `CCCCCCCCCN(CCCCCCCCC)CCN(CCCCCCCCC)CC(=O)N1CCN(C(=O)CN(CCCCCCCCC)CCCCC(=O)OCCCC)CC1` [Compound 55, Butyl 5-((2-(4-(N-(2-(dinonylamino)ethyl)-N-nonylglycyl)piperazin-1-yl)-2-oxoethyl)(nonyl)amino)pentanoate], 6.96.
